Test results from patent US20220380385A1, “PYRIMIDINE FIVE-MEMBERED NITROGEN HETEROCYCLIC DERIVATIVE, PREPARATION METHOD THEREOF AND PHARMACEUTICAL USE THEREOF” (TUOJIE BIOTECH(SHANGHAI) CO., LTD., priority 2019, published 2022).
Each block holds one molecule with its values, some of them ahead of it.

Legend:
CYP1A2 = target: T1, CYP1A2 (Homo sapiens, UniProt P05177); experiment: CYP inhibition in mixed human liver microsomes, CYP1A2 (phenacetin); format: in vitro ADME; conditions: mixed human liver microsomes 0.2 mg/mL, phenacetin; read-out: Median inhibitory concentration (IC50) CYP 1A2
T1 construct: Mixed human liver microsomes from 150 donors; tissue Corning 452117; host or cells: pooled human liver microsomes (150 donors)
T1 sequence (P05177 1-516): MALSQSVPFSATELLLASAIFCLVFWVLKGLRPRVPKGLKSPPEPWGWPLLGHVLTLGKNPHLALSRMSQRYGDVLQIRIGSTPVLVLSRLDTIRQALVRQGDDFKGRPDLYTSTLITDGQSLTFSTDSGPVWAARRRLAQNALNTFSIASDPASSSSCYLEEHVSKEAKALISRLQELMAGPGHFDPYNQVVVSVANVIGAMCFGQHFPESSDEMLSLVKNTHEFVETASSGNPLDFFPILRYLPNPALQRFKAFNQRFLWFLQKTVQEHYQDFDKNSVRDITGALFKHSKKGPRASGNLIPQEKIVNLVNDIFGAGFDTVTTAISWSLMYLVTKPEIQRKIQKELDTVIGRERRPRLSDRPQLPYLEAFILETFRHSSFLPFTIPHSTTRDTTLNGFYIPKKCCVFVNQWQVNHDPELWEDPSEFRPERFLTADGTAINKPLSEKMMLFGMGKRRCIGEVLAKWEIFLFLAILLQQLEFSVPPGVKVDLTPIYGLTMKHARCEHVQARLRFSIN
Protocol: (§1) Mixed human liver microsomes from 150 donors (purchased from Corning, catalog number 452117) were used to evaluate the representative substrate metabolic responses of the five main human CYP subtypes (CYP1A2, CYP2C9, CYP2C19, CYP2D6 and CYP3A4/5). The influence of different concentrations of test compounds on the metabolic responses of phenacetin (CYP1A2), diclofenac sodium (CYP2C9), S-mephenytoin (CYP2C19), bufurolol hydrochloride (2D6) and midazolam (CYP3A4/5) was determined by liquid chromatography tandem mass spectrometry (LC/MS/MS).
(§2) 200 μL of the reaction system (100 mmol/L phosphate buffer, pH 7.4, containing 0.3% DMSO, 0.6% acetonitrile and 0.1% methanol by volume respectively) with 30 µM phenacetin, 10 μM diclofenac sodium, 35 μM S-mephenytoin, 5 μM bufurolol hydrochloride, 3 μM midazolam, 1 mM NADPH, test compound (at a concentration of 0.1, 0.3, 1, 3, 10 and 30 μmol/L respectively) or positive compound or blank control and mixed human liver microsomes (0.2 mg/mL) was incubated at 37° C. for 5 minutes. […]
(§3) The peak area was calculated based on the chromatograms. The residual activity ratio (%) was calculated using the following equation: […]
(§4) The CYP median inhibitory concentration (IC50) was calculated by Excel XLfit 5.3.1.3.

CYP2C9 = target: T2, CYP2C9 (Homo sapiens, UniProt P11712); experiment: CYP inhibition in mixed human liver microsomes, CYP2C9 (diclofenac sodium); format: in vitro ADME; conditions: mixed human liver microsomes 0.2 mg/mL, diclofenac sodium; read-out: Median inhibitory concentration (IC50) CYP 2C9
T2 construct: Mixed human liver microsomes from 150 donors; tissue Corning 452117; host or cells: pooled human liver microsomes (150 donors)
T2 sequence (P11712 whole entry): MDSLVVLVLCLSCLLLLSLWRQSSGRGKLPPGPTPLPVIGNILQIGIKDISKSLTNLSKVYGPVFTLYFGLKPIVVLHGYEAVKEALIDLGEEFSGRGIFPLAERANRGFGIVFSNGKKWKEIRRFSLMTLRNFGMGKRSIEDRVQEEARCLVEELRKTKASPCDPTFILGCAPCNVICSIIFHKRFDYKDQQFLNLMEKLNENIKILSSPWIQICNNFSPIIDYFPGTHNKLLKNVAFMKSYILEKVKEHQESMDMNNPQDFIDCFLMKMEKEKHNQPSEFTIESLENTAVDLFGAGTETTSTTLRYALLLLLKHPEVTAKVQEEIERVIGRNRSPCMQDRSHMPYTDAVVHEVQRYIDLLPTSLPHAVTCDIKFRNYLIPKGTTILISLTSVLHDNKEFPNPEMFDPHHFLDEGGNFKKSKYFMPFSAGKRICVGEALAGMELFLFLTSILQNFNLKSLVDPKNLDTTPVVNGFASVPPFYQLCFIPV
Protocol: as §1, §2, §3, §4

CYP2C19 = target: T3, CYP2C19 (Homo sapiens, UniProt P33261); experiment: CYP inhibition in mixed human liver microsomes, CYP2C19 (S-mephenytoin); format: in vitro ADME; conditions: mixed human liver microsomes 0.2 mg/mL, S-mephenytoin; read-out: Median inhibitory concentration (IC50) CYP 2C19
T3 construct: Mixed human liver microsomes from 150 donors; tissue Corning 452117; host or cells: pooled human liver microsomes (150 donors)
T3 sequence (P33261 whole entry): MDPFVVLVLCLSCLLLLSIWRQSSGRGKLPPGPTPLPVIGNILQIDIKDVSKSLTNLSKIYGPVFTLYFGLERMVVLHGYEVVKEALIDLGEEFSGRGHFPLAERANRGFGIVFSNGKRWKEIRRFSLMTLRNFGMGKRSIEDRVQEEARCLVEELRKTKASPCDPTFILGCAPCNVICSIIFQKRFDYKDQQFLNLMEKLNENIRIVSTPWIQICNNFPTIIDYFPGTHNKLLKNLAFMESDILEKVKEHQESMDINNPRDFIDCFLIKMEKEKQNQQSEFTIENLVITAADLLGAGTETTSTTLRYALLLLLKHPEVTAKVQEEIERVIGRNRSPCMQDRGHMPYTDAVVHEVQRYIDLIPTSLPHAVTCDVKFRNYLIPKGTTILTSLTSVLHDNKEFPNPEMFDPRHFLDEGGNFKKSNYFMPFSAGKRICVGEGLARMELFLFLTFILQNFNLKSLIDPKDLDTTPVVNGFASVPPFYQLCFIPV
Protocol: as §1, §2, §3, §4

CYP2D6 = target: T4, CYP2D6 (Homo sapiens, UniProt P10635); experiment: CYP inhibition in mixed human liver microsomes, CYP2D6 (bufurolol hydrochloride); format: in vitro ADME; conditions: mixed human liver microsomes 0.2 mg/mL, bufurolol hydrochloride; read-out: Median inhibitory concentration (IC50) CYP 2D6
T4 construct: Mixed human liver microsomes from 150 donors; tissue Corning 452117; host or cells: pooled human liver microsomes (150 donors)
T4 sequence (P10635 whole entry): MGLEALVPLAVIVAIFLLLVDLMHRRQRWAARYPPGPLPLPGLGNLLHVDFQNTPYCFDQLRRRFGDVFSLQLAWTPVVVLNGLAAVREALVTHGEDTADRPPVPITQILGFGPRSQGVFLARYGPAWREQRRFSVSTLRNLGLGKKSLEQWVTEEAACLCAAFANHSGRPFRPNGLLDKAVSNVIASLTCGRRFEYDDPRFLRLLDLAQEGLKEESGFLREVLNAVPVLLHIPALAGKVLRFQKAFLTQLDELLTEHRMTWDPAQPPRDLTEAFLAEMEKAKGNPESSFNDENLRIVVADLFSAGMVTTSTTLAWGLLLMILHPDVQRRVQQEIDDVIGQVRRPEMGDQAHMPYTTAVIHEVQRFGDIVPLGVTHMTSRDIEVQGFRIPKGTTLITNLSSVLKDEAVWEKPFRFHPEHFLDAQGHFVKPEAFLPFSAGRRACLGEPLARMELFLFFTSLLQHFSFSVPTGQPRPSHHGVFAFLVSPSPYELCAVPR
Protocol: as §1, §2, §3, §4

CYP3A4/5 = experiment: CYP inhibition in mixed human liver microsomes, CYP3A4/5 (midazolam); format: in vitro ADME; conditions: mixed human liver microsomes (150 donors), pH 7.4, probe midazolam (3 μM), mixed human liver microsomes 0.2 mg/mL, read-out: Median inhibitory concentration (IC50) CYP 3A4/5
Protocol: as §1, §2, §3, §4

[1] = In vitro metabolic stability in rat liver microsomes; format: in vitro ADME; conditions: rat liver microsomes (male Wistar Han), NADPH, 37° C.; read-out: Intrinsic clearance rate
Protocol: The concentration of the compound in the reaction system was determined by LC/MS/MS, so as to calculate the intrinsic clearance rate of the test compound and to evaluate the in vitro metabolic stability in rat liver microsomes.
222.5 μL, 1.1236 mg/mL of a mixed solution of rat liver microsomes (male Wistar Han strain, purchased from Corning, catalog number 452511) and 25 μL, 10 mM of NADPH were added into the incubation plate. The mixture was mixed by vortexing for 10 seconds. The plate was incubated in a water bath at 37° C. for 8 minutes. 2.5 μL, 100 μM of the test compound or positive control was added to the incubation plate to start the reaction. The mixture was mixed by vortexing for 12 seconds, and incubated in a water bath at 37° C. The reaction was stopped by transferring 20 μL of the incubation system to a stop plate containing 100 μL of cold stop solution at 0.5, 5, 10, 15, 20 and 30 minutes. The mixture was mixed by vortexing for 2 minutes. The stop plate was centrifuged at 4000 rpm for 20 minutes, then left to stand at 4° C. for 30 minutes, and then centrifuged at 4000 rpm for 20 minutes. 40 μL of the supernatant of each compound was transferred to a 96-well injection plate, and 160 μL of pure water was added to dilute the samples.
The obtained samples were quantified by ion chromatogram, and the residual rate was calculated according to the peak area of the test compounds or positive control. The slope k was determined by linear regression of the natural logarithm of the residual rate to the incubation time by using Microsoft Excel.
The in vitro half-life (in vitro t1/2) was calculated from the slope: in vitro t1/2=−(0.693/k)
The following equation was used to convert in vitro half-life into intrinsic clearance rate (in vitro CLint, μL/min/mg protein):
in vitro CLint=(0.693/t1/2)×(incubation volume (L)/protein amount (mg))

[2] = In vivo pharmacokinetics in rats (gavage); design: species or system SD rats; conditions: original drug, rat, 7.5 mpk
Protocol: (§5) Rats were used as the test animals. The plasma drug concentration at different times after the rats were given the compounds of the invention by gavage was determined by using the LC/MS/MS method. The in vivo pharmacokinetic behavior of the compounds of the present invention in rats was studied, and pharmacokinetic characteristics thereof were evaluated.
Test animals: 3 healthy, 6-8 weeks old male SD rats in each group
A certain amount of drug was weighed, and 0.5% by mass of hypromellose, 0.1% by volume of Tween 80 and 99.4% by volume of water were added thereto to formulate a white suspension at 1 mg/mL.
SD rats were fasted overnight, then the drug was administered by gavage. The dosage of reference 1 was 7.5 mg/kg, and the dosage of Example 1 was 5 mg/kg.
(§6) Rats were administered the compounds of the present invention by gavage. At 0.25, 0.5, 1, 2, 4, 8 and 24 hours after administration, 0.2 mL of blood was collected from the jugular vein and placed in a test tube containing EDTA-K2. The tube was centrifuged at 4° C., 4000 rpm for 5 minutes to separate the plasma, which was stored at −75° C.
Determination of the content of the test compounds in rat plasma after administration of different concentrations of drugs by gavage: 50 μL of rat plasma at each time after administration was taken, and 200 μL of a solution of the internal standard dexamethasone in acetonitrile (50 ng/mL). The mixture was mixed by vortexing for 30 seconds, centrifuged at 4° C., 4700 rpm for 15 minutes. The supernatant of the plasma samples were collected and diluted three times with water, and 2.0 μL was taken for the LC/MS/MS analysis.

[3] = In vivo pharmacokinetics in cynomolgus monkeys (gavage); conditions: male, plasma, po, 5 mg/kg, original drug, cynomolgus monkey, 5 mpk
Protocol: as §5, with “Cynomolgus monkeys” for “Rats”, “cynomolgus monkeys” for “rats”
Test animals: 3 healthy, 2-5 years old male cynomolgus monkeys in each group;
Administration by gavage: a certain amount of drug was weighed, and 0.5% by mass of hypromellose, 0.1% by volume of Tween 80 and 99.4% by volume of water were added thereto to formulate a white suspension at 1 mg/mL.
The cynomolgus monkeys were fasted overnight, and then the drug was administered by gavage at a dose of 5 mg/kg.
as §6, with “Cynomolgus monkeys were” for “Rats were”, “the peripheral” for “the jugular”, “at 2 to 8°” for “at 4°”, “C., 2000” for “C., 4000”, “for 10” for “for 5”
Determination of the content of the test compounds in cynomolgus monkey plasma after administration of different concentrations of drugs by gavage: 55 μL of cynomolgus monkey plasma at each time after administration was taken, and 200 μL of a solution of the internal standard verapamil or dexamethasone in acetonitrile. The mixture was mixed by vortexing for 30 seconds, centrifuged at 4° C., 3900 rpm for 15 minutes. The supernatant of the plasma samples were collected and diluted three times with water, and 15 μL was taken for LC/MS/MS analysis.

[4] = target: T5, full-length SHP2 (aa 1-593) (Homo sapiens, UniProt Q06124); experiment: Activity on SHP2 phosphatase (DiFMUP fluorescence)
T5 sequence (Q06124 1-593): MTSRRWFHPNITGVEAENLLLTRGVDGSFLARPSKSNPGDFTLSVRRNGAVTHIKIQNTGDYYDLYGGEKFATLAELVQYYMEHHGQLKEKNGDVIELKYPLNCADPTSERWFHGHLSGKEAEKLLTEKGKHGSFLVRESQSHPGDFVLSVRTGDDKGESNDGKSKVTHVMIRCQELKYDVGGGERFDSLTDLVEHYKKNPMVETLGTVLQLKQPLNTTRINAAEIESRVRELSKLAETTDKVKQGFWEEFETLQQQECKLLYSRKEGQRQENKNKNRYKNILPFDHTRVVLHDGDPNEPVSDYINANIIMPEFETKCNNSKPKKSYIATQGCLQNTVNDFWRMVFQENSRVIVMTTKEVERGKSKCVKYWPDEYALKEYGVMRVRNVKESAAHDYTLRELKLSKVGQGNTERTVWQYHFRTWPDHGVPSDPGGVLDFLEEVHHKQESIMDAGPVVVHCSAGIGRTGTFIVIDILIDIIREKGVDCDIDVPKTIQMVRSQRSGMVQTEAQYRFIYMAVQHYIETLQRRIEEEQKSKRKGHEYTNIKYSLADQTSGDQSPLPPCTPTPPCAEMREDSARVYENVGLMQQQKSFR
Protocol: 0.2 nM recombinantly expressed full-length SHP2 (aa 1-593), 0.5 nM activated polypeptide IRS1 with dual phosphorylation sites (sequence: H2N-LN(pY)IDLDLY(dPEG8)LST(pY)ASINFQK-amide), and a series of concentrations of the test compound (final concentrations of 1 μM, 0.3 μM, 0.1 μM, 0.03 μM, 0.01 μM, 0.003 μM, 0.001 M, 0.0003 μM, 0.0001 μM and 0.00003 μM) were added into the phosphatase reaction solution (60 mM HEPES, PH 7.5 0.005% Brij-35, 75 mM NaCl, 75 mM KCl, 1 mM EDTA, 5 mM DTT), followed by shaking (350 rpm) at room temperature for 30 minutes. Then the reaction substrate DiFMUP was added at a final concentration of 30 μM, and the reaction solution was reacted at room temperature for 30 minutes. Then the phosphatase reaction was stopped by adding 5 μL of the reaction stop solution (60 mM HEPES, pH 7.5, 0.2% SDS). Ex358 nm/Em455 fluorescence value was read on the fluorescence plate reader MD SpectraMax.
The IC50 value of compounds was calculated by using the four-parameter logit method. […] Different concentrations correspond to different inhibition rates of phosphatase activity. A reverse curve was plotted and the IC50 of the inhibitors was calculated from the curve. The IC50 of compounds was calculated by using Primer premier 6.0.

IC50 (CYP1A2): 9.21 µM
IC50 (CYP2C9): > 20 µM
IC50 (CYP2C19): > 20 µM
IC50 (CYP2D6): > 20 µM
IC50 at 5 min (CYP3A4/5): > 20 µM
Compound: Nc1nccc(Sc2cnc(N3CCC4(CC3)Cc3ncccc3[C@H]4N)n3ccnc23)c1Cl [Example 1, (S)-1′-(8-((2-Amino-3-chloropyridin-4-yl)thio)imidazo[1,2-c]pyrimidin-5-yl)-5,7-dihydrospiro[cyclopenta[b]pyridine-6,4′-piperidin]-5-amine]

Compound: CNc1nccc(Sc2c(C)nc(N3CCC4(CC3)Cc3ncccc3[C@H]4N)n3ccnc23)c1Cl [Example 2, (S)-1′-(8-((3-Chloro-2-(methylamino)pyridin-4-yl)thio)-7-methylimidazo[1,2-c]pyrimidin-5-yl)-5,7-dihydrospiro[cyclopenta[b]pyridine-6,4′-piperidin]-5-amine]
microsomal CLint at 1 µM [1]: 19.2 µL/min/mg
AUC ([2]; male, SD, plasma, po, 7.5 mg/kg, read-out: Area under curve AUC): 4250 ng·h/mL
Cmax ([2]; male, SD, plasma, po, 7.5 mg/kg, read-out: Maximum blood conc. Cmax): 500 ng/mL
Area under curve of unit dose AUC/D [2]: 567 ng*h/mL per mg/kg
AUC ([3]; read-out: Area under curve AUC): 71000 ng·h/mL
Cmax ([3]; read-out: Maximum blood conc. Cmax): 12700 ng/mL

Compound: [2H]C([2H])Nc1nccc(Sc2c(C)nc(N3CCC4(CC3)Cc3ncccc3[C@H]4N)n3ccnc23)c1Cl [Example 5, (S)-1′-(8-((3-Chloro-2-((methyl-d2)amino)pyridin-4-yl)thio)-7-methylimidazo[1,2-c]pyrimidin-5-yl)-5,7-dihydrospiro[cyclopenta[b]pyridine-6,4′-piperidin]-5-amine]
microsomal CLint at 1 µM [1]: 26.6 µL/min/mg
IC50 [4]: 0.0048 µM

Compound: [2H]CNc1nccc(Sc2c(C)nc(N3CCC4(CC3)Cc3ncccc3[C@H]4N)n3ccnc23)c1Cl [Example 6, (S)-1′-(8-((3-Chloro-2-((methyl-d)amino)pyridin-4-yl)thio)-7-methylimidazo[1,2-c]pyrimidin-5-yl)-5,7-dihydrospiro[cyclopenta[b]pyridine-6,4′-piperidin]-5-amine]
microsomal CLint at 1 µM [1]: 34.7 µL/min/mg
IC50 [4]: 0.0047 µM
